Like-named read-outs stand apart in the source and are kept apart here.
Tests used:
[1] = target: T1, Aurora A (Homo sapiens, UniProt O14965); test: Aurora A Inhibition Assay (Z-Lyte); type: biochemical; settings: read-out: Aurora A relative inhibition percentage at a dose of 1 μM
T1 construct: purchased Invitrogen PV3612
T1 sequence (O14965 1-403): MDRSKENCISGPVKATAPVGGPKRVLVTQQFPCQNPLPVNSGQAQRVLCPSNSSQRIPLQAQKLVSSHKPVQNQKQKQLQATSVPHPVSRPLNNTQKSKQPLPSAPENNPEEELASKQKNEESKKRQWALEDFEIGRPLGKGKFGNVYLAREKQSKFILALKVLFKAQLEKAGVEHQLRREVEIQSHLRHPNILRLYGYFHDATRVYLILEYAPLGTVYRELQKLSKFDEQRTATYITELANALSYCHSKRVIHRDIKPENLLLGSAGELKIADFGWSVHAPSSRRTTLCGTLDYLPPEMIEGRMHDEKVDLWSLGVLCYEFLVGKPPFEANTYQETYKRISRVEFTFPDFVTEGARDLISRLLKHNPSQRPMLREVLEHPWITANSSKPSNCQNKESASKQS
Experimental: Aurora A inhibition was determined using the Z-Lyte assay kit from Invitrogen. The assay was performed using the recommended manufacturer's instructions with 20 μM ATP and 12 nM Aurora A (Invitrogen cat # PV3612). The % inhibition values were determined according to the manufacturer's directions and IC50 values were obtained using a non-linear 4 point logistic curve fit (XLfit4, IDBS)

[2] = test system: SW620 colon cancer cell line; test: Cell growth inhibition, Sulforhodamine B assay (SRB); type: cell-based; settings: Homo sapiens, SW-620, 120 h, 5 days culture, SRB
Experimental: (§1) The cells were cultured for 5 days before the Sulforhodamine B assay (SRB) was performed to determine the compound's cell growth inhibition activity.
(§2) Sulforhodamine B (purchased from Sigma, Oakville, ON, Canada) is a water-soluble dye that binds to the basic amino acids of the cellular proteins. Thus, colorimetric measurement of the bound dye provides an estimate of the total protein mass that is related to the cell number. the cells are fixed in situ by gently aspirating off the culture media and adding 50 μl ice cold 10% Trichloroacetic Acid (TCA) per well and incubate at 4° C. for 30-60 min, The plates are washed with water five times and allowed to air dry for 5 min. […] Following staining, plates are washed four times with 1% acetic acid to remove unbound dye and then allowed to air dry for 5 min. […] Absorbance is read at 570 nm.
(§3) The percentage (%) of relative growth inhibition was calculated by comparing to DMSO treated only cells (100%). GI50's were determined for compounds with cytotoxic activity. The GI50 was calculated using GraphPad PRISM software (GraphPad Software, Inc., San Diego, Calif., USA).

[3] = test system: HCC1954 basal breast cancer cell line; test: as above; type: cell-based; settings: Homo sapiens, read-out: Cell Line GI50 Range HCC-1954
Experimental: as §1, §2, §3

[4] = test system: MCF-7 luminal breast cancer cell line; test: as above; type: cell-based; settings: Homo sapiens, MCF7, 120 h, 5 days culture, SRB
Experimental: as §1, §2, §3

[5] = test system: MDA-MB-468 basal breast cancer cell line; test: as above; type: cell-based; settings: Homo sapiens, read-out: Cell Line GI50 Range MDA-MB-468
Experimental: as §1, §2, §3

[6] = test system: A549 lung cancer cell line; test: as above; type: cell-based; settings: Homo sapiens, read-out: Cell Line GI50 Range A-549
Experimental: as §1, §2, §3

[7] = target: T2, human PLK4 (Homo sapiens, UniProt O00444); test: PLK4 Inhibition Assay (indirect ELISA); type: biochemical; settings: 15 μM ATP; read-out: PLK4 IC50 Ranges
T2 construct: amino terminal GST fusion of residues 1-391 of human PLK4; made in house; host or cells: E. coli
T2 sequence (O00444 1-391): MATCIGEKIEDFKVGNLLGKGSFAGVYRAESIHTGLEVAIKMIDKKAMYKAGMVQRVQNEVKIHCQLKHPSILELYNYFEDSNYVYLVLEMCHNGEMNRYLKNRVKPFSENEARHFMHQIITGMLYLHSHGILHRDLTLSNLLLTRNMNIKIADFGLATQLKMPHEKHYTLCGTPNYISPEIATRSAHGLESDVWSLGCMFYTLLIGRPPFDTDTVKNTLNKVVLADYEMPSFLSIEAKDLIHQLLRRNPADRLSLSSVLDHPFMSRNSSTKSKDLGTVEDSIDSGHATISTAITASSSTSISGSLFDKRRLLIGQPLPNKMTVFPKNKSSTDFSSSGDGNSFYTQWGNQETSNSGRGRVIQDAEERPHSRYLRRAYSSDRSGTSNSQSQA
Experimental: The protein was purified from clarified cell extracts after induction at 15° C. overnight using glutathione sepharose, gel permeation chromatography, and ion exchange (Resource Q). The resulting protein was dephosphorylated with lambda phosphatase (NEB cat# P0753), and resolved from the phosphatase using gluthione sepharose. The dephosphorylated GST-PLK4 was stored in aliquots at −80° C. until use.
PLK4 activity was measured using an indirect ELISA detection system. […] The colourimetric reaction was allowed to continue for 5 minutes, followed by addition of stop solution (0.5 N sulphuric acid), and quantified by detection at 450 nm with either a monochromatic or filter based plate reader (Molecular Devices M5 or Beckman DTX880, respectively).
Compounds were pre-incubated in the presence of enzyme for 15 minutes prior to addition of ATP and the activity remaining quantified using the above described activity assay. […] The IC50 value was determined using a non-linear 4 point logistic curve fit (XLfit4, IDBS) with the formula; (A+(B/(1+((x/C){grave over ( )}D)))), where A=background value, B=range, C=inflection point, D=curve fit parameter.

[8] = SW620 colon cancer cell line, read-out: Cell Line GI50 Range SW-620
[9] = HCC1954, 120 h, HCC1954 basal breast cancer cell line, 5 days culture, SRB
[10] = MCF-7 luminal breast cancer cell line, read-out: Cell Line GI50 Range MCF-7
[11] = 120 h, MDA-MB-468 basal breast cancer cell line, 5 days culture, SRB
[12] = 120 h, A549 lung cancer cell line, 5 days culture, SRB
[13] = 120 h, HCC1954 basal breast cancer cell line, 5 days culture, SRB

COc1ccc2c(c1)[C@@]1(C[C@@H]1c1ccc3c(/C=C/c4ccc(CN5CCOCC5)cc4)n[nH]c3c1)C(=O)N2 (racemic) [Example A41, (1R*,2S*)-(E)-5′-methoxy-2-(3-(4-(morpholinomethyl)styryl)-1H-indazol-6-yl)spiro[cyclopropane-1,3′-indolin]-2′-one 2,2,2-trifluoroacetate]
inhibition at 1 µM ([1]; 1 μM compound, 20 μM ATP): > 50%

O=C1Nc2ccccc2[C@@]12C[C@@H]2c1ccc2c(/C=C/c3ccc(CN4CCCCC4)cc3)n[nH]c2c1 (racemic) [Example A57, (1R*,2S*)-(E)-2-(3-(4-(piperidin-1-ylmethyl)styryl)-1H-indazol-6-yl)spiro[cyclopropane-1,3′-indolin]-2′-one 2,2,2-trifluoroacetate]
inhibition at 1 µM ([1]; 1 μM compound, 20 μM ATP): > 50%

O=C1Nc2ccccc2[C@@]12C[C@@H]2c1ccc2c(/C=C/c3ccc(CN4CCCC4)cc3)n[nH]c2c1 (racemic) [Example A60, (1R*,2S*)-(E)-2-(3-(4-(pyrolidin-1-ylmethyl)styryl)-1H-indazol-6-yl)spiro[cyclopropane-1,3′-indolin]-2′-one 2,2,2-trifluoroacetate]
inhibition at 1 µM ([1]; 1 μM compound, 20 μM ATP): > 50%

COc1ccc2c(c1)[C@@]1(C[C@@H]1c1ccc3c(-c4ccc(N5CCN(C(C)C)CC5)cc4)n[nH]c3c1)C(=O)N2 (racemic) [Example A96, (1R*,2S*)-2-(3-(4-(4-isopropylpiperazin-1-yl)phenyl)-1H-indazol-6-yl)-5′-methoxyspiro[cyclopropane-1,3′-indolin]-2′-one]
GI50 [2, 8]: < 100 nM | GI50 [3, 9]: 1000 to 10000 nM | GI50 [4, 10]: < 100 nM | GI50 [5, 11]: < 100 nM | GI50 [6, 12]: < 100 nM | inhibition at 1 µM ([1]; 1 μM compound, 20 μM ATP): < 50%

CN1CCN(c2ccc(-c3n[nH]c4cc([C@@H]5C[C@@]56C(=O)Nc5ccc(C(F)(F)F)cc56)ccc34)cc2)CC1 (racemic) [Example A170, (1R*,2S*)-2-(3-(4-(4-methylpiperazin-1-yl)phenyl)-1H-indazol-6-yl)-5′-(trifluoromethyl)spiro[cyclopropane-1,3′-indolin]-2′-one 2,2,2-trifluoroacetate]
IC50 [7]: 100 to 1000 nM

COc1ccc2c(c1)[C@@]1(C[C@@H]1c1ccc3c(/C=C/c4ccc(N5CCN(C)CC5)cc4)n[nH]c3c1)C(=O)N2 (racemic) [Example A174, (1R*,2S*)-(E)-5′-methoxy-2-(3-(4-(4-methylpiperazin-1-yl)styryl)-1H-indazol-6-yl)spiro[cyclopropane-1,3′-indolin]-2′-one 2,2,2-trifluoroacetate]
GI50 [2, 8]: < 100 nM | GI50 [3, 13]: 100 to 1000 nM | GI50 [4, 10]: < 100 nM | GI50 [5, 11]: < 100 nM | GI50 [6, 12]: < 100 nM

COc1ccc2c(c1)[C@@]1(C[C@@H]1c1ccc3c(/C=C/c4ccc(CCN5CCOCC5)cc4)n[nH]c3c1)C(=O)N2 (racemic) [Example A178, (1R*,2S*)-(E)-5′-methoxy-2-(3-(4-(2-morpholinoethyl)styryl)-1H-indazol-6-yl)spiro[cyclopropane-1,3′-indolin]-2′-one 2,2,2-trifluoroacetate]
GI50 [2, 8]: < 100 nM | GI50 [3, 9]: 100 to 1000 nM | GI50 [4, 10]: < 100 nM | GI50 [5, 11]: < 100 nM | GI50 [6, 12]: < 100 nM

COc1ccc2c(c1)[C@@]1(C[C@@H]1c1ccc3c(/C=C/c4csc(CN5CCOCC5)c4)n[nH]c3c1)C(=O)N2 (racemic) [Example A184, (1R*,2S*)-5′-methoxy-2-(3-((E)-2-(5-(morpholinomethyl)thiophen-3-yl)vinyl)-1H-indazol-6-yl)spiro[cyclopropane-1,3′-indolin]-2′-one 2,2,2-trifluoroacetate]
GI50 [2, 8]: < 100 nM | GI50 [3, 13]: > 10000 nM | GI50 [4, 10]: 100 to 1000 nM | GI50 [5, 11]: < 100 nM | GI50 [6, 12]: < 100 nM | inhibition at 1 µM ([1]; 1 μM compound, 20 μM ATP): > 50%

CCN1CCN(c2ccc(/C=C/c3n[nH]c4cc([C@@H]5C[C@@]56C(=O)Nc5ccc(OC)cc56)ccc34)cc2)CC1 (racemic) [Example A188, (1R*,2S*)-(E)-2-(3-(4-(4-ethylpiperazin-1-yl)styryl)-1H-indazol-6-yl)-5′-methoxyspiro[cyclopropane-1,3′-indolin]-2′-one 2,2,2-trifluoroacetate]
GI50 [2, 8]: < 100 nM | GI50 [3, 13]: 100 to 1000 nM | GI50 [4, 10]: < 100 nM | GI50 [5, 11]: < 100 nM | GI50 [6, 12]: < 100 nM | inhibition at 1 µM ([1]; 1 μM compound, 20 μM ATP): > 50%

Cc1ccc2c(c1)[C@@]1(C[C@@H]1c1ccc3c(/C=C/c4ccc(CN5CCOCC5)cc4)n[nH]c3c1)C(=O)N2 (racemic) [Example A196, (1R*,2S*)-(E)-5′-methyl-2-(3-(4-(morpholinomethyl)styryl)-1H-indazol-6-yl)spiro[cyclopropane-1,3′-indolin]-2′-one 2,2,2-trifluoroacetate]
inhibition at 1 µM [1]: > 50%

COc1ccc2c(c1)[C@@]1(C[C@@H]1c1ccc3c(/C=C/c4cc(F)c(CN5CCOCC5)c(F)c4)n[nH]c3c1)C(=O)N2 (racemic) [Example A217, (1R*,2S*)-(E)-2-(3-(3,5-difluoro-4-(morpholinomethyl)styryl-1H-indazol-6-yl)-5′-methoxyspiro[cyclopropane-1,3′-indolin]-2′-one 2,2,2-trifluoroacetate]
inhibition at 1 µM ([1]; 1 μM compound, 20 μM ATP): > 50%

O=C1Nc2ccccc2[C@]12C[C@H]2c1ccc2cn[nH]c2c1 (relative stereo) [Example A2, (1R*,2S*)-2-(1H-indazol-6-yl)spiro[cyclopropane-1,3′-indolin]-2′-one]
GI50 ([2]; read-out: Cell Line GI50 Range SW-620, SW620 colon cancer cell line): > 10000 nM | GI50 ([3]; HCC1954, 120 h): > 10000 nM | GI50 ([4]; read-out: Cell Line GI50 Range MCF-7, MCF-7 luminal breast cancer cell line): > 10000 nM | GI50 ([5]; MDA-MB-468, 120 h): > 10000 nM | GI50 ([6]; A549, 120 h): > 10000 nM

COc1ccc2c(c1)[C@]1(C[C@@H]1c1ccc3c(-c4ccc(N5CCN(C)CC5)nc4)n[nH]c3c1)C(=O)N2 (relative stereo) [Example A17, (1R*,2R*)-5′-Methoxy-2-(3-(6-(4-methylpiperazin-1-yl)pyridin-3-yl)-1H-indazol-6-yl)spiro[cyclopropane-1,3′-indolin]-2′-one]
inhibition at 1 µM ([1]; 1 μM compound, 20 μM ATP): < 50%

— patent publication US8481525B2, “Kinase inhibitors and method of treating cancer with same” (University of Health Network, priority 2009, dated 2013)
